Results as given in patent US8779004B2, “Stable emulsion formulations” (Amgen, Inc., priority 2006, dated 2014).
Marks after values point to notes of the source that are not given here.

Legend:
Type in all cases: physicochemical
[1] = pH and particle size of crude cinacalcet emulsions with different oils and phospholipids
Method: Table 4 illustrates the effect of different oils and phospholipids on pH and particle size of crude emulsions prepared for cinacalcet. The particle size distribution of the droplets was measured using light diffraction techniques after dilution of the emulsion in water. The particle size is represented by D(4,3) which is the volume corrected mean of the particles (units). As used herein, SBO—soybean oil (long chain triglycerides); MCT—medium chain triglycerides; STG—structured triglycerides (including PEGylated oils)
Coarse prototype emulsion formulations were prepared at a batch size of 10 mLs by an Ultraturrax T25 S1 Janke and Kunkel blade homogenizer equipped with a 10 mm rotostator, followed by sonication from a Vibracell Ultrasonicator with a titanium microtip probe. Batches at a 40 mL size were prepared in a similar manner, with the exception of the ultrasonicator having a ¾″ titanium probe tip.
Coarse prototype emulsions at a batch size of 10-40 mLs were prepared by mixing the oil with lecithin by a blade mixer at 60° C. protected by a nitrogen headspace. Cinacalcet was added and mixed well, followed by the addition of the aqueous phase containing glycerin and buffer until a homogenous mixture was made. A sonicator probe was used to further process the emulsion premix while maintaining the nitrogen headspace. Coarse emulsions prepared by sonication were centrifuged at 3K RPM to remove gross particulates on a Dupont Sorval centrifuge, and dispensed by removal of the top contents of the emulsion for evaluation.

[2] = Zeta potential titration of emulsions (droplet charge vs pH); conditions: cinacalcet/1% EYP/10% SBO emulsion
Method: Panel A, titration results of 1% EYP/10% SBO in 1 mM dibasic phosphate. Panel B, titration results of cinacalcet/1% EYP/10% SBO in 1 mM dibasic phosphate. Other components of the emulsions include 10% soybean oil, 1% egg lecithin, 2.25% glycerin and water. Panel C, titration results for Compound A. Emulsion composition: SBO 10%, Lecithin 2% at pH 7. Concentration of Compound A was 5 mg/mL for formulation #1 and 1 mg/mL for formulation #2.
The zeta potential measurements were made on a Malvern Zetasizer 4 laser-scattering particle electrophoretic analyzer that measures the electrophoretic mobility and zeta potential distribution. Samples were prepared for the zeta potential titration by diluting the emulsion approximately 2500 fold in 1 mM dibasic phosphate pH 9 and titrating the solution with 100 mM phosphoric acid in 0.5 pH unit increments. […] Theoretically, the emulsions are stabilized by this charge, which prevents the droplets from coalescing. […] In contrast, the cinacalcet emulsions achieve charge neutrality in the range of pH 7-7.5.

[3] = Long-term storage stability of emulsions (assay, pH, particle size); conditions: 5 mg/mL emulsion
Method: Calcimimetics emulsions for long-term studies were prepared at 5 mg/mL drug concentration, 5% SBO, 2% egg lecithin, 2% glycerin, 20 mM TRIS buffer at pH 9. The emulsions were packed in glass vials at 20 mL each and stored inverted in stability chambers. At each time-point, 3 vials from each chamber were pulled and analyzed for the calcimimetic concentration, pH and particle size. […] The values for pH dropped over time, with greater magnitude of drop seen at higher temperature.

[4] = crude emulsion, MCT 5%, 1% Purified Egg Lecithin
[5] = crude emulsion, MCT 5%, 1% Purified Soy Lecithin
[6] = crude emulsion, MCT 5%, 2% Purified Egg Lecithin
[7] = crude emulsion, MCT 5%, % Purified Soy Lecithin
[8] = crude emulsion, MCT 10%, 1% Purified Egg Lecithin
[9] = crude emulsion, MCT 10%, 1% Purified Soy Lecithin
[10] = crude emulsion, MCT 10%, 2% Purified Egg Lecithin
[11] = crude emulsion, MCT 10%, % Purified Soy Lecithin
[12] = crude emulsion, MCT 20%, 1% Purified Egg Lecithin
[13] = crude emulsion, MCT 20%, 1% Purified Soy Lecithin
[14] = crude emulsion, MCT 20%, 2% Purified Egg Lecithin
[15] = crude emulsion, MCT 20%, % Purified Soy Lecithin
[16] = crude emulsion, SBO 5%, 1% Purified Egg Lecithin
[17] = crude emulsion, SBO 5%, 1% Purified Soy Lecithin
[18] = crude emulsion, SBO 5%, 2% Purified Egg Lecithin
[19] = crude emulsion, SBO 5%, % Purified Soy Lecithin
[20] = crude emulsion, SBO 10%, 1% Purified Egg Lecithin
[21] = crude emulsion, SBO 10%, 1% Purified Soy Lecithin
[22] = crude emulsion, SBO 10%, 2% Purified Egg Lecithin
[23] = crude emulsion, SBO 10%, % Purified Soy Lecithin
[24] = crude emulsion, SBO 20%, 1% Purified Egg Lecithin
[25] = crude emulsion, SBO 20%, 1% Purified Soy Lecithin
[26] = crude emulsion, SBO 20%, 2% Purified Egg Lecithin
[27] = crude emulsion, SBO 20%, % Purified Soy Lecithin
[28] = crude emulsion, STG 5%, 1% Purified Egg Lecithin
[29] = crude emulsion, STG 5%, 2% Purified Egg Lecithin
[30] = crude emulsion, STG 10%, 1% Purified Egg Lecithin
[31] = crude emulsion, STG 10%, 2% Purified Egg Lecithin
[32] = crude emulsion, STG 20%, 1% Purified Egg Lecithin
[33] = crude emulsion, STG 20%, 2% Purified Egg Lecithin

## C[C@@H](NCCCc1cccc(C(F)(F)F)c1)c1cccc2ccccc12 [Cinacalcet, N-(1-(R)-(1-naphthyl)ethyl]-3-[3-(trifluoromethyl)phenyl]-1-aminopropane]
[1]; [4]
  D(4, 3): 0.39 µm
  pH: 8.58
[1]; [5]
  D(4, 3): 0.36 µm
  pH: 9.12
[1]; [6]
  D(4, 3): 0.35 µm
  pH: 8.39
[1]; [7]
  D(4, 3): 0.32 µm
  PH: 8.97
[1]; [8]
  D(4, 3): 0.53 µm
  pH: 8.61
[1]; [9]
  D(4, 3): 0.21 µm
  pH: 9.09
[1]; [10]
  D(4, 3): 0.4 µm
  pH: 8.29
[1]; [11]
  D(4, 3): 0.44 µm
  PH: 8.99
[1]; [12]
  D(4, 3): 0.57 µm
  pH: 8.41
[1]; [13]
  D(4, 3): 0.47 µm
  pH: 8.81
[1]; [14]
  D(4, 3): 0.42 µm
  pH: 8.23
[1]; [15]
  D(4, 3): 0.31 µm
  PH: 8.95
[1]; [16]
  D(4, 3): 1.07 µm
  pH: 8.81
[1]; [17]
  D(4, 3): 1.3 µm
  pH: 8.94
[1]; [18]
  D(4, 3): 0.77 µm
  pH: 8.53
[1]; [19]
  D(4, 3): 0.81 µm
  PH: 8.99
[1]; [20]
  D(4, 3): 0.65 µm
  pH: 8.80
[1]; [21]
  D(4, 3): 0.98 µm
  pH: 8.86
[1]; [22]
  D(4, 3): 0.68 µm
  pH: 8.46
[1]; [23]
  D(4, 3): 0.4 µm
  PH: 8.91
[1]; [24]
  D(4, 3): 1.42 µm
  pH: 8.62
[1]; [25]
  D(4, 3): 1.4 µm
  pH: 8.73
[1]; [26]
  D(4, 3): 1.06 µm
  pH: 8.39
[1]; [27]
  D(4, 3): 0.49 µm
  PH: 8.82
[1]; [28]
  D(4, 3): 0.72 µm
  pH: 8.55
[1]; crude emulsion, STG 5%, 1% Purified Soy Lecithin
  pH: 9.09
[1]; [29]
  D(4, 3): 0.52 µm
  pH: 8.46
[1]; crude emulsion, STG 5%, % Purified Soy Lecithin
  PH: 9.04
[1]; [30]
  D(4, 3): 1.23 µm
  pH: 8.71
[1]; crude emulsion, STG 10%, 1% Purified Soy Lecithin
  pH: 9.00
[1]; [31]
  D(4, 3): 0.81 µm
  pH: 8.37
[1]; crude emulsion, STG 10%, % Purified Soy Lecithin
  PH: 9.01
[1]; [32]
  D(4, 3): 0.84 µm
  pH: 8.52
[1]; crude emulsion, STG 20%, 1% Purified Soy Lecithin
  pH: 8.99
[1]; [33]
  D(4, 3): 1.18 µm
  pH: 8.28
[1]; crude emulsion, STG 20%, % Purified Soy Lecithin
  PH: 9.07
[1]; emulsion, STG 5%, 1% Purified Soy Lecithin, after a single autoclaving cycle
  D(4, 3): 0.40^a
[1]; emulsion, STG 5%, % Purified Soy Lecithin, after a single autoclaving cycle
  D(4, 3): 0.34^a
[1]; emulsion, STG 10%, 1% Purified Soy Lecithin, after a single autoclaving cycle
  D(4, 3): 0.73^a
[1]; emulsion, STG 10%, % Purified Soy Lecithin, after a single autoclaving cycle
  D(4, 3): 0.41^a
[1]; emulsion, STG 20%, % Purified Soy Lecithin, after a single autoclaving cycle
  D(4, 3): 0.46^a
[2]; pH of about 9, 1 mM dibasic phosphate
  droplet charge of emulsion: net negative charge
[2]; titration in 1 mM dibasic phosphate
  pH range in which emulsion achieves charge neutrality: 7-7.5
[3]; 2 years at 5° C. and 25° C.
  changes in particle size: No significant changes
  cinacalcet assay and impurity levels: within specifications
[3]; 9 months at 40° C.
  cinacalcet assay and impurity levels: within specifications
[3]; 18 months at 40° C.
  changes in particle size: No significant changes
